# ChEMBL document CHEMBL1201862, “PubChem BioAssay data set” (2004)
#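 Growth conditions: 96-well plates. Treatment: test compound, 48 hours, 5 concentrations. Analysis: linear interpolation between bracketing concentrations; unreached endpoints set to highest concentration. Here, GI50 denotes the concentration required for 50% inhibition of growth.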 Active and inactive are the calls of the source. Cut-off read from the data, not from the text of the source: active = GI50 up to about 1.1 µM and inactive = higher.
# Experiments:
# Assay in all cases: NCI anticancer screen, dose series, 48 h
# 786-0 = tested on: 786-0
# A498 = tested on: A498
# A549 = tested on: A549
# ACHN = tested on: ACHN
# BT-549 = tested on: BT-549
# CAKI-1 = tested on: CAKI-1
# CCRF-CEM = tested on: CCRF-CEM
# COLO 205 = tested on: COLO 205
# DU-145 = tested on: DU-145
# EKVX = tested on: EKVX
# HCC 2998 = tested on: HCC 2998
# HCT-116 = tested on: HCT-116
# HCT-15 = tested on: HCT-15
# HL-60 = tested on: HL-60
# HOP-62 = tested on: HOP-62
# HOP-92 = tested on: HOP-92
# HT-29 = tested on: HT-29
# Hs-578T = tested on: Hs-578T
# IGROV-1 = tested on: IGROV-1
# K562 = tested on: K562
# KM12 = tested on: KM12
# LOX IMVI = tested on: LOX IMVI
# M14 = tested on: M14
# MCF7 = tested on: MCF7
# MDA-MB-231 = tested on: MDA-MB-231
# MDA-MB-435 = tested on: MDA-MB-435
# MDA-N = tested on: MDA-N
# MOLT-4 = tested on: MOLT-4
# Malme-3M = tested on: Malme-3M
# NCI-H226 = tested on: NCI-H226
# NCI-H23 = tested on: NCI-H23
# NCI-H460 = tested on: NCI-H460
# NCI-H522 = tested on: NCI-H522
# NCI/ADR-RES = tested on: NCI/ADR-RES
# OVCAR-3 = tested on: OVCAR-3
# OVCAR-4 = tested on: OVCAR-4
# OVCAR-5 = tested on: OVCAR-5
# OVCAR-8 = tested on: OVCAR-8
# PC-3 = tested on: PC-3
# RPMI-8226 = tested on: RPMI-8226
# RXF 393 = tested on: RXF 393
# SF-268 = tested on: SF-268
# SF-295 = tested on: SF-295
# SF-539 = tested on: SF-539
# SK-MEL-28 = tested on: SK-MEL-28
# SK-MEL-2 = tested on: SK-MEL-2
# SK-MEL-5 = tested on: SK-MEL-5
# SK-OV-3 = tested on: SK-OV-3
# SN12C = tested on: SN12C
# SNB-19 = tested on: SNB-19
# SNB-75 = tested on: SNB-75
# SR = tested on: SR
# SW-620 = tested on: SW-620
# T47D = tested on: T47D
# TK-10 = tested on: TK-10
# U-251 = tested on: U-251
# UACC-257 = tested on: UACC-257
# UACC-62 = tested on: UACC-62
# UO-31 = tested on: UO-31
compound,measurement,setting,value
O[C@H]1[C@H](O)[C@@H](Cn2nnc(-c3ccccc3)c2-c2ccccc2)OCO[C@@H]1Cn1nnc(-c2ccccc2)c1-c1ccccc1,GI50,786-0,2.88 µM (inactive)
same,GI50,A498,6.47 µM (inactive)
same,GI50,A549,3.74 µM (inactive)
same,GI50,ACHN,3.63 µM (inactive)
same,GI50,BT-549,5.31 µM (inactive)
same,GI50,CAKI-1,5.73 µM (inactive)
same,GI50,CCRF-CEM,3.53 µM (inactive)
same,GI50,COLO 205,4.99 µM (inactive)
same,GI50,DU-145,7.4 µM (inactive)
same,GI50,EKVX,6.47 µM (inactive)
same,GI50,HCC 2998,2.24 µM (inactive)
same,GI50,HCT-116,3.11 µM (inactive)
same,GI50,HCT-15,3100 nM
same,GI50,HL-60,3.88 µM (inactive)
same,GI50,HOP-62,13.1 µM (inactive)
same,GI50,HOP-92,2.83 µM (inactive)
same,GI50,HT-29,2.26 µM (inactive)
same,GI50,Hs-578T,6.85 µM (inactive)
same,GI50,IGROV-1,3.65 µM (inactive)
same,GI50,K562,4.01 µM (inactive)
same,GI50,KM12,3.63 µM (inactive)
same,GI50,LOX IMVI,2.32 µM (inactive)
same,GI50,M14,3.37 µM (inactive)
same,GI50,MCF7,3.24 µM (inactive)
same,GI50,MDA-MB-231,6.47 µM (inactive)
same,GI50,MDA-MB-435,5.04 µM (inactive)
same,GI50,MDA-N,3.84 µM (inactive)
same,GI50,MOLT-4,2.7 µM (inactive)
same,GI50,Malme-3M,9.42 µM (inactive)
same,GI50,NCI-H226,5.9 µM (inactive)
same,GI50,NCI-H23,5.92 µM (inactive)
same,GI50,NCI-H460,3.67 µM (inactive)
same,GI50,NCI-H522,5.31 µM (inactive)
same,GI50,NCI/ADR-RES,7.24 µM (inactive)
same,GI50,OVCAR-3,2.96 µM (inactive)
same,GI50,OVCAR-4,10.5 µM (inactive)
same,GI50,OVCAR-5,2.58 µM (inactive)
same,GI50,OVCAR-8,4.01 µM (inactive)
same,GI50,PC-3,2.68 µM (inactive)
same,GI50,RPMI-8226,2.32 µM (inactive)
same,GI50,RXF 393,2.97 µM (inactive)
same,GI50,SF-268,4.85 µM (inactive)
same,GI50,SF-295,3.78 µM (inactive)
same,GI50,SF-539,3.16 µM (inactive)
same,GI50,SK-MEL-28,6.18 µM (inactive)
same,GI50,SK-MEL-2,3.15 µM (inactive)
same,GI50,SK-MEL-5,4.32 µM (inactive)
same,GI50,SK-OV-3,3.38 µM (inactive)
same,GI50,SN12C,2.36 µM (inactive)
same,GI50,SNB-19,8.89 µM (inactive)
same,GI50,SNB-75,7.82 µM (inactive)
same,GI50,SR,2.04 µM (inactive)
same,GI50,SW-620,5.22 µM (inactive)
same,GI50,T47D,7.98 µM (inactive)
same,GI50,TK-10,5.14 µM (inactive)
same,GI50,U-251,3.73 µM (inactive)
same,GI50,UACC-257,4.32 µM (inactive)
same,GI50,UACC-62,2.99 µM (inactive)
same,GI50,UO-31,4.19 µM (inactive)
C=C1C(=O)OC2C3OC(C)(CCC(O)C3COC(C)=O)CC(OC(=O)/C(=C/C)COC(C)=O)C12 (stereo not drawn),GI50,786-0,0.138 µM (active)
same,GI50,A498,1.58 µM (inactive)
same,GI50,A549,7.33 µM (inactive)
same,GI50,ACHN,0.0925 µM (active)
same,GI50,BT-549,0.18 µM (active)
same,GI50,CAKI-1,0.166 µM (active)
same,GI50,CCRF-CEM,0.0176 µM (active)
same,GI50,COLO 205,0.082 µM (active)
same,GI50,DU-145,0.778 µM (active)
same,GI50,EKVX,0.424 µM (active)
same,GI50,HCC 2998,1.3 µM (inactive)
same,GI50,HCT-116,0.0796 µM (active)
same,GI50,HCT-15,61 nM
same,GI50,HL-60,0.0248 µM (active)
same,GI50,HOP-62,3.08 µM (inactive)
same,GI50,HOP-92,0.159 µM (active)
same,GI50,HT-29,0.154 µM (active)
same,GI50,Hs-578T,0.634 µM (active)
same,GI50,IGROV-1,0.738 µM (active)
same,GI50,K562,0.0775 µM (active)
same,GI50,KM12,1.5 µM (inactive)
same,GI50,LOX IMVI,0.163 µM (active)
same,GI50,M14,0.469 µM (active)
same,GI50,MCF7,0.128 µM (active)
same,GI50,MDA-MB-231,0.53 µM (active)
same,GI50,MDA-MB-435,0.109 µM (active)
same,GI50,MDA-N,0.155 µM (active)
same,GI50,MOLT-4,0.0783 µM (active)
same,GI50,Malme-3M,0.0242 µM (active)
same,GI50,NCI-H226,2.16 µM (inactive)
same,GI50,NCI-H23,1.02 µM (active)
same,GI50,NCI-H460,0.752 µM (active)
same,GI50,NCI-H522,0.0317 µM (active)
same,GI50,NCI/ADR-RES,0.59 µM (active)
same,GI50,OVCAR-3,0.212 µM (active)
same,GI50,OVCAR-4,1.9 µM (inactive)
same,GI50,OVCAR-5,0.586 µM (active)
same,GI50,OVCAR-8,0.532 µM (active)
same,GI50,PC-3,1.48 µM (inactive)
same,GI50,RPMI-8226,0.0698 µM (active)
same,GI50,RXF 393,0.223 µM (active)
same,GI50,SF-268,0.982 µM (active)
same,GI50,SF-295,9.12 µM (inactive)
same,GI50,SF-539,1.58 µM (inactive)
same,GI50,SK-MEL-28,0.116 µM (active)
same,GI50,SK-MEL-2,1.13 µM (inactive)
same,GI50,SK-MEL-5,0.684 µM (active)
same,GI50,SK-OV-3,6.64 µM (inactive)
same,GI50,SN12C,0.738 µM (active)
same,GI50,SNB-19,5.32 µM (inactive)
same,GI50,SNB-75,4.66 µM (inactive)
same,GI50,SR,0.196 µM (active)
same,GI50,SW-620,0.0807 µM (active)
same,GI50,T47D,0.142 µM (active)
same,GI50,TK-10,0.165 µM (active)
same,GI50,U-251,1.22 µM (inactive)
same,GI50,UACC-257,0.586 µM (active)
same,GI50,UACC-62,0.458 µM (active)
same,GI50,UO-31,0.398 µM (active)
